Results: US20070135383A1, “Phospholipase inhibitors, including multi-valent phospholipase inhibitors, and use thereof, including as lumen-localized phospholipase inhibitors” (priority 2005, published 2007)
Like-named read-outs stand apart in the source and are kept apart here.

Legend:
[1] = target: T1, human group 1B PLA2 (hps PLA2) (Homo sapiens, UniProt P04054); assay: Fluorimetric PPyrPM assay for group 1B PLA2 inhibition (Example 12); type: biochemical
T1 construct: made in house; host or cells: E. coli
T1 sequence (P04054 23-148): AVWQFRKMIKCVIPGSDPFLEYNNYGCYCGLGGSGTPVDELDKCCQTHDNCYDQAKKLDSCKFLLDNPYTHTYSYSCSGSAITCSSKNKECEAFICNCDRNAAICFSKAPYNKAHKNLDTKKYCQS

[2] = target: T2, mouse group 1B PLA2 (mps PLA2) (Mus musculus, UniProt Q9Z0Y2); assay: as above; type: biochemical
T2 construct: made in house; host or cells: E. coli
T2 sequence (Q9Z0Y2 23-146): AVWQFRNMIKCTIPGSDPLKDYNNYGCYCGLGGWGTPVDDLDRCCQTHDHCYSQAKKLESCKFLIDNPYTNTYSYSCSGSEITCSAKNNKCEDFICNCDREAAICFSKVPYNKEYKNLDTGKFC

[3] = target: T3, porcine group 1B PLA2 (pps PLA2) (Sus scrofa, UniProt P00592); assay: as above; type: biochemical
T3 construct: purchased
T3 sequence (P00592 23-146): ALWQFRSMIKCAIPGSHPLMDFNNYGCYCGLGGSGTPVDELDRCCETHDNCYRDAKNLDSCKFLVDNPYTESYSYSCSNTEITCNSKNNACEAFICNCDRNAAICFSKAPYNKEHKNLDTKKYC
Summary of the method: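 Porcine group 1B PLA2 hydrolysis of 4.2 uM PPyrPM vesicle solution (pre-mixing concentration) in 50 mM Tris-HCl pH 8.0, 50 mM KCl, 1 mM CaCl2 with BSA; inhibitors in 8-point threefold series from 15 uM. After 3 min at 37 °C, fluorescence read at ex 342/em 395 nm; duplicate IC50 by four-parameter fit.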

[4] = Mouse pharmacokinetic study, IV vs oral (Example 18); type: in vivo, male CD-1 mice; conditions: PO 30 mg/kg vs IV 3 mg/kg, serum by LC/MS/MS; for bioavailability: male, CD-1, mouse
Experimental: The plasma exposure of male CD-1 mice to indole and indole-related test articles (TAs) following intravenous (IV, 3 mg/kg) and oral (PO, 30 mg/kg) routes of administration was measured. This model was used to investigate the bioavailability of indole and indole-related TAs in mouse. Mice were selected for the study since they are an accepted species frequently used in pre-clinical evaluation of drugs intended for human use.
Male CD-1 mice (7-8 weeks old) were obtained from Charles River Laboratories (Wilmington, Mass.). Two groups (N=18 and 27) of male CD-1 mice were used for the study. Upon arrival, the animals were placed on Rodent Diet 5001 (Purina Mills, Inc., St. Louis, Mo.).
On study day (−1), indole and indole-related TAs were formulated for oral or IV dosing by mixing the formulation components with test article in the proportions described in Table 10.1. The components were mixed by vortexing and sonicating in a warming bath for 60 minutes. Animals were fasted overnight prior to start of the study. On study day (1), formulations were sonicated for an hour to make sure that no visible particles were present prior to dosing, or if present were evenly distributed in suspension. Formulated test article were stirred continuously during dosing.
All animals were weighed on study day (1) and the body weights were recorded and used for dose calculation. The animals were dosed by either PO or IV route as outlined in Table 10.2. Blood samples (0.5 mL) were collected at specified time intervals into labeled, yellow-capped Microtainer tubes. The tubes were centrifuged (8,000×g, 10 min). Serum was then pipetted off into labeled Eppendorf® tubes and frozen at −80° C. Clinical observations were recorded as needed.
Analysis of serum samples was performed by LC/MS/MS (Waters Quattro Premier, Milford, Mass.). Areas under curves (AUC) were calculated using Graphpad Prism Version 4. Bioavailability was calculated using the following equation: (Bioavailability)=(AUC0-t,oral/AUC0-t,iv)×(Doseiv/Doseoral)×100
where AUC0-t=total area under curve at the last measurable time point

PL A2 = conditions: range given in words, art-known PL A2 inhibitors; cited from earlier work
[5] = human pancreas secreted PLA2, read-out: ILYPSA IC50 hps PLA2
[6] = mouse pancreas secreted PLA2, read-out: ILYPSA IC50 mps PLA2
[7] = porcine pancreas secreted PLA2, read-out: ILYPSA IC50 pps PLA2

Compound | IC50 [1, 5] [nM] | IC50 [2, 6] [nM] | IC50 [3, 7] [nM] | bioavailability ([4]; in vivo) [%] | IC50 (PL A2) | also measured
Cc1c(C(=O)C(N)=O)c2c(OCC(=O)O)cccc2n1CCCCCCCCCCCCOc1ccc(C(C)(C)c2ccc(OCCCCCCCCCCCCn3c(C)c(C(=O)C(N)=O)c4c(OCC(=O)O)cccc43)cc2)cc1 [ILY-V-30, 2,2′-(1,1′-(12,12′-(4,4′-(propane-2,2-diyl)bis(4,1-phenylene))bis(oxy)bis(dodecane-12,1-diyl))bis(3-(2-amino-2-oxoacetyl)-2-methyl-1H-indole-4,1-diyl))bis(oxy)diacetic acid] | 430 | 190 | < 20 | 0 | – | –
Cc1c(C(=O)C(N)=O)c2c(OC(C(=O)O)C(C)C)cccc2n1CCCCCCCCCCCCOc1ccccc1OCCCCCCCCCCCCn1c(C)c(C(=O)C(N)=O)c2c(OC(C(=O)O)C(C)C)cccc21 (stereo not shown) [ILY-V-33, 2,2′-(1,1′-(12,12′-(1,2-phenylenebis(oxy))bis(dodecane-12,1-diyl))bis(3-(2-amino-2-oxoacetyl)-2-methyl-1H-indole-4,1-diyl))bis(oxy)bis(3-methylbutanoic acid)] | 220 | 200 | 240 | 8.75 | – | –
CCN(CC)CCN(Cc1ccc(-c2ccc(C(F)(F)F)cc2)cc1)C(=O)Cn1cc(Cc2ccn(C)n2)c(=O)nc1SCc1ccc(F)cc1 [GB-480848] | – | – | – | – | nM or subnM range | –
Cc1c(C(=O)C(N)=O)c2c(OCC(=O)O)cccc2n1CCCCCCCCCCCCSCCCCCCCCSCCCCCCCCCCCCn1c(C)c(C(=O)C(N)=O)c2c(OCC(=O)O)cccc21 [ILY-V-26, 2,2′-(1,1′-(12,12′-(Octane-1,8-diylbis(sulfanediyl))bis(dodecane-12,1-diyl))bis(3-(2-amino-2-oxoacetyl)-2-methyl-1H-indole-4,1-diyl))bis(oxy)diacetic acid] | 240 | 340 | 260 | – | – | bioavailability [4]: 0%
Cc1c(C(=O)C(N)=O)c2c(OCC(=O)O)cccc2n1CCCCCCCCCCCCOc1cc(OCCCCCCCCCCCCn2c(C)c(C(=O)C(N)=O)c3c(OCC(=O)O)cccc32)cc(OCCCCCCCCCCCCn2c(C)c(C(=O)C(N)=O)c3c(OCC(=O)O)cccc32)c1 [ILY-V-32, 2,2,′,2″-(1,1′,1″-(12,12′,12″-(benzene-1,3,5-triyltris(oxy))tris(dodecane-12,1-diyl))tris(3-(2-amino-2-oxoacetyl)-2-methyl-1H-indole-4,1-diyl))tris(oxy)triacetic acid] | 60 | 130 | 90 | – | – | Bioavailability (%) [4]: 0.00%
CCc1c(CC(N)=O)c2cc(OCCCP(=O)(O)O)ccc2n1Cc1ccccc1 [LY-311727] | – | – | – | – | sub μM range | –
Cc1c(C(=O)C(N)=O)c2c(OCC(=O)O)cccc2n1CCCCCCCCCCCCOc1ccccc1OCCCCCCCCCCCC(=O)O [ILY-V-41, 12-{2-[12-(3-Aminooxalyl-4-carboxymethoxy-2-methyl-indol-1-yl)-dodecyloxy]-phenoxy}-dodecanoic acid] | 1540 | 1600 | 1140 | 1.62 | – | –
Cc1c(C(=O)C(N)=O)c2c(OCC(=O)O)cccc2n1CCCCCCCCCCCCOc1ccccc1-c1ccccc1OCCCCCCCCCCCCn1c(C)c(C(=O)C(N)=O)c2c(OCC(=O)O)cccc21 [ILY-V-37, [3-Aminooxalyl-1-(12-{2′-[12-(3-aminooxalyl-4-carboxymethoxy-2-methyl-indol-1-yl)-dodecyloxy]-biphenyl-2-yloxy}-dodecyl)-2-methyl-1H-indol-4-yloxy]-acetic acid] | 270 | 230 | 200 | 0.15 | – | –
C=CCN(CC(=O)OCC)C(=O)COc1ccc(C(=O)OCc2ccccc2)cc1 | – | – | – | – | μM range | –
Cc1c(C(=O)C(N)=O)c2c(OCC(=O)NS(C)(=O)=O)nccc2n1Cc1ccccc1-c1ccccc1 [ILY-II-14, 2-(3-(2-amino-2-oxoacetyl)-1-(biphenyl-2-ylmethyl)-2-methyl-1H-pyrrolo[3,2-c]pyridin-4-yloxy)-N-(methylsulfonyl)acetamide] | – | – | – | – | – | IC50 [1]: 690 nM; IC50 [2]: 590 nM; IC50 [3]: 40 nM; bioavailability [4]: 14.7%
